Results from patent US10590115B2, “Tetrahydroquinazoline derivatives useful as anticancer agents” (PFIZER INC., priority 2018, dated 2020).

How the values were obtained:
[1] = target: T1, GDP-loaded kRas (1-169) G12C, C51S, C80L, C118S (Homo sapiens, UniProt P01116, C118S/C51S/C80L/G12C); assay: Mass Spectrometry Reactivity Assay (MSRA), covalent adduct with kRas G12C; assay type: binding; conditions: 0.5 h at room temperature; 5 μM KRas protein; typical final concentration of the compounds 10 μM
T1 construct: GDP-loaded kRas (1-169) G12C, C51S, C80L, C118S
Method: Mass Spectrometry Reactivity Assay (MSRA)
Compounds presented in the present invention covalently bind to kRas G12C using MSRA to detect a covalent adduct of the exemplary compound and kRas G12C. GDP-loaded kRas (1-169) G12C, C51S, C80L, C118S were diluted in the protein assay buffer 25 mM Hepes pH7.5, 200 mM NaCl, 5% glycerol to concentration of 5 μM and 20 μl of protein was transferred into 96-well plate. […] See K-Ras(G12C) inhibitors allosterically control GTP affinity and effector interactions; Ostrem J M, Peters U, Sos M L, Wells J A, Shokat K M; Nature. 2013, Nov. 28; 503(7477):548-51.
Exemplary compounds dissolved in DMSO were diluted 100-fold into solution containing 20 μl of 5 μM KRas protein in the 96-well plate to initiate the reaction. Mosquito (TPP Lab tech) liquid handling robot was used to add compounds to protein solution. Typical final concentration of the compounds was 10 μM. The plates were placed on a shaker for 1 min at RT, sealed and incubated at room temperature for specified time period. 5 μl of reaction mix was added to 10 μl of 0.2% formic acid stop solution and mixed well. Typical end points were 30, 120, 600 and 1440 min.
Data were collected using Waters Acquity H-class UPLC system/Xevo G2-XS TOF mass spectrometer. The protein was injected in their liquid phase onto a Bruker Microtrap protein column TR1/15109/03. The following buffers were used to set LC gradient: Buffer A: 0.2% formic acid H20; B: 0.2% formic acid CAN. The protein was eluted from the column using the following LC Gradient: 0-0.4 min, 10% B to 30% B; 0.4 min-2.4 min, to 90% B, 2.5 min, 10% B, 3 min, 10% B. Initial data analysis was performed using MaxEnt software right after data acquisition.
The standard auto processing function was used to define percentage of unmodified and modified kRas protein using MexEnt software right after data acquisition. The highest peak was defined as 100% while smaller peak as assigned the number defined by autoprocessing function. The percent of modification corresponding to modified with exemplary compound and unmodified KRas GDP-loaded kRas (1-169) G12C, C51S, C80L, C118S were exported to Xcel data analysis software.
The percent of modified protein at the defined concentration of exemplary compound was calculated using the following formula: % mod=Num of modified peak/Sum of modified+unmodified.

[2] = target: T2, KRAS G12C in MiaPaCa2 cells (Homo sapiens, UniProt P01116, G12C); assay: MiaPaCa2 Cell Activity Assay (Raf-1 RBD capture of active Ras, MSD); assay type: cell-based; conditions: MIAPaCa-2 cells, 6 hours treatment; assay limit is 30.0 μM
T2 construct: endogenous in cells; host or cells: MiaPaCa2
Method: MiaPaCa2 Cell Activity Assay
(§1) Compounds presented in the present invention lead to the accumulation of the GDP bound Ras upon treatment of human cancer cell line.
(§2) The accumulation of the GDP-bound KRAS G12C in cellular environment was measured based on the principle that KRAS G12C only binds to its downstream kinase; Raf-1 (MAP Kinase Kinase Kinase), when in its active-GTP bound state. In this state, Ras binded to a domain of Raf-1 kinase referred to as the Ras Binding Domain (RBD).
(§3) MiaPaCa2 cells were grown in DMEM medium (Gibco 11995) supplemented with 10% fetal bovine serum and 1% penicillin/streptomycin. Cells were seeded in 96-well tissue culture plates at a density of 40,000 cells/well and allowed to attach for 16-24 hours. Test compounds were prepared as a 10 mM stock in DMSO and serially diluted in 100% DMSO using a 3-fold dilution scheme. An intermediate 5× concentrated plate in complete growth medium was made and 25 μl/well was added to the 100 μl of cells for a final concentration of 0.1% DMSO. Each concentration of exemplary compound was tested in duplicate. The negative control wells were cells with control inhibitor at 10 μM, and the positive control wells were cells without drugs, DMSO only. Plates were incubated for 6 hours at 37° C., 5% CO2. Following treatment, cells were washed 3× with ice-cold PBS and 100 μl/well ice-cold 1× Assay/Lysis. Buffer with protease inhibitors was added (25 mM HEPES, pH 7.5, 150 mM NaCl, 1% NP-40, 10 mM MgCl2, 1 mM EDTA, 2% Glycerol). Following lysis samples were frozen at −80° C.
(§4) Raf-1 RBD (LJIC-1988A1) was diluted to 100 ng/well in PBS and 5 μl/well was spot coated onto MSD high bind SECTOR plates (L15XB). Plates were incubated at room temperature for 1 hour on an orbital shaker. Plates were washed with PBS/0.05% Tween-20 and 50 μl/well of thawed lysate samples were added, followed by 50 μl of 1% MSD Blocker A in PBS/0.05% Tween-20 (R93BA). Plates were incubated for 1 hour on an orbital shaker and washed with PBS/0.05% Tween-20. 25 μl/well of Anti-pan-Ras Antibody (Cell Biolabs 244003) diluted 1:3000 was added in 1% MSD Blocker A solution and plates were incubated for 1 hour on an orbital shaker and washed with PBS/0.05% Tween-20. SULFO-TAG goat anti-mouse secondary antibody (MSD R32AC) was diluted 1:500 in MSD Blocker A solution and added at 25 μL/well. Plates were incubated for 1 hour on an orbital shaker and washed with PBS/0.05% Tween-20. 150 μl/well of Read Buffer T (MSD R92TC) diluted 1:3 in H2O was added and plates were read on a Meso Scale Discovery Sector Imager S600.
(§5) KRAS signal was normalized to maximum inhibition and DMSO control values, and IC50 values were generated using a 4 parameter fit of the dose response curve. The decrease in IC50 reflects that the exemplary compound lead to a higher level of accumulation of GDP-bound KRAS G12C than another exemplary compounds at specific timepoint of treatment of cancer cell line.

[3] = target: T3, KRAS G12C in H358 cells (Homo sapiens, UniProt P01116, G12C); assay: H358 Cell Activity Assay (Raf-1 RBD capture of active Ras, MSD); assay type: cell-based; conditions: 6 hours treatment
T3 construct: endogenous in cells; host or cells: H358
Method: as §1, §2
as §3, with “H358” for “MiaPaCa2”, “RPMI 1640” for “DMEM”, “11875)” for “11995)”
as §4, §5

Row | SMILES | % Modification (0.5 h) [1] [%] | IC50 [2] [µM] | IC50 [3] [µM]
1 | C=CC(=O)N1CCN(c2nc(OCCCN(C)C)nc3c2C[C@@H](C)[C@H](c2c(Cl)c(C)cc4[nH]ncc24)C3)CC1 (relative stereo) [Example C7, 1-(4-{(6R,7R)-rel-7-(5-chloro-6-methyl-1H-indazol-4-yl)-2-[3-(dimethylamino)propoxy]-6-methyl-5,6,7,8-tetrahydroquinazolin-4-yl}piperazin-1-yl)prop-2-en-1-one] | 73 | 0.088 | 0.106
2 | C=CC(=O)N1CCN(c2nc(OCCN(C)C)nc3c2C[C@@H](C)[C@H](c2c(Cl)c(C)cc4[nH]ncc24)C3)CC1 (relative stereo) [Example C8, 1-(4-{(6R,7R)-rel-7-(5-chloro-6-methyl-1H-indazol-4-yl)-2-[2-(dimethylamino)ethoxy]-6-methyl-5,6,7,8-tetrahydroquinazolin-4-yl}piperazin-1-yl)prop-2-en-1-one] | 65 | 0.14 | 0.116
3 | C=CC(=O)N1CCN(c2nc(OC[C@H]3CCCN3C)nc3c2C[C@@H](C)[C@H](c2c(C)ccc4[nH]ncc24)C3)CC1 (relative stereo) [Example C10, 1-{4-[(6R,7R)-rel-6-methyl-7-(5-methyl-1H-indazol-4-yl)-2-{[(2R)-1-methylpyrrolidin-2-yl]methoxy}-5,6,7,8-tetrahydroquinazolin-4-yl]piperazin-1-yl}prop-2-en-1-one] | 80 | 0.236 | 0.129
4 | C=CC(=O)N1CCN(c2nc(N3CC(N(C)C)C3)nc3c2C[C@@H](C)[C@H](c2c(Cl)ccc4[nH]ncc24)C3)CC1 (single isomer, unassigned) [Example F10] | – | 0.169 | 0.395
5 | C=CC(=O)N1CC2(C1)CN(c1ncnc3c1CCC(c1c(C)ccc4[nH]ncc14)C3)C2 (stereo not shown) [Example B1, 1-{6-[7-(5-methyl-1H-indazol-4-yl)-5,6,7,8-tetrahydroquinazolin-4-yl]-2,6-diazaspiro[3.3]hept-2-yl}prop-2-en-1-one] | 9 | 18.7 | –
6 | C=CC(=O)N1CCN(c2ncnc3c2CCC(c2c(C)ccc4[nH]ncc24)C3)CC1C (stereo not shown) [Example B3, 1-{2-methyl-4-[7-(5-methyl-1H-indazol-4-yl)-5,6,7,8-tetrahydroquinazolin-4-yl]piperazin-1-yl}prop-2-en-1-one] | 7 | 28.4 | –
7 | C=CC(=O)N1CCN(c2nc(OCCOC)nc3c2CCC(c2c(C)ccc4[nH]ncc24)C3)CC1 (stereo not shown) [Example C1, 1-{4-[2-(2-methoxyethoxy)-7-(5-methyl-1H-indazol-4-yl)-5,6,7,8-tetrahydroquinazolin-4-yl]piperazin-1-yl}prop-2-en-1-one] | 19 | 9.84 | –
8 | C=CC(=O)N1CCN(c2nc(OCCO)nc3c2CCC(c2c(C)ccc4[nH]ncc24)C3)CC1 (stereo not shown) [Example C3, 1-{4-[2-(2-hydroxyethoxy)-7-(5-methyl-1H-indazol-4-yl)-5,6,7,8-tetrahydroquinazolin-4-yl]piperazin-1-yl}prop-2-en-1-one] | 15 | 12 | –
9 | C=CC(=O)N1CCN(c2nc(OCCCO)nc3c2CCC(c2c(C)ccc4[nH]ncc24)C3)CC1 (stereo not shown) [Example C4, 1-{4-[2-(3-hydroxpropoxy)-7-(5-methyl-1H-indazol-4-yl)-5,6,7,8-tetrahydroquinazolin-4-yl]piperazin-1-yl}prop-2-en-1-one] | 34 | 3.61 | –

The remaining lines, values ahead:

Row | % Modification (0.5 h) [1] [%] | IC50 [2] [µM] | IC50 [3] [µM] | SMILES
10 | 59 | 0.429 | 0.36 | C=CC(=O)N1CCN(c2nc(N3CC(N(C)C)C3)nc3c2C[C@@H](C)[C@H](c2c(C)ccc4[nH]ncc24)C3)CC1 (relative stereo) [Example F1, 1-{4-[(6R,7R)-rel-2-[3-(dimethylamino)azetidin-1-yl]-6-methyl-7-(5-methyl-1H-indazol-4-yl)-5,6,7,8-tetrahydroquinazolin-4-yl]piperazin-1-yl}prop-2-en-1-one]
11 | 12 | 22.9 | – | C=CC(=O)N1CCN(c2nc(N3CC(N(C)C)C3)nc3c2C[C@H](C)[C@@H](c2c(Cl)c(C)cc4[nH]ncc24)C3)CC1 [Example F8, 1-(4-{(6S,7S)-7-(5-chloro-6-methyl-1H-indazol-4-yl)-2-[3-(dimethylamino)azetidin-1-yl]-6-methyl-5,6,7,8-tetrahydroquinazolin-4-yl}piperazin-1-yl)prop-2-en-1-one]
12 | 79 | 0.113 | – | C=CC(=O)N1CCN(c2nc(N3CC(N(C)C)C3)nc3c2C[C@@H](C)[C@H](c2c(C)c(Cl)cc4[nH]ncc24)C3)C[C@H]1C [Example F13, 1-[(2R)-4-{(6R,7R)-7-(6-chloro-5-methyl-1H-indazol-4-yl)-2-[3-(dimethylamino)azetidin-1-yl]-6-methyl-5,6,7,8-tetrahydroquinazolin-4-yl}-2-methylpiperazin-1-yl]prop-2-en-1-one]
